According to patent US20220144815A1, “1,3,4-OXADIAZOLES AND THEIR DERIVATIVES AS NEW ANTIFUNGAL AGENTS” (Bayer Aktiengesellschaft, priority 2018, published 2022):
Like-named read-outs stand apart in the source and are kept apart here.

Tests used:
Phakosporra pachirrhizi = test: Example A: fungicidal activity, spore germination in 96-well plates; type: cell-based; conditions: 4 hours at 21° C., read-out: efficacy (inhibition of the fungal germination); for inhibition at 30 ppm: 30 ppm of active ingredient; for inhibition at 20 ppm: 20 ppm of active ingredient
Procedure: Cryo-conserved wild-type spores of the biotroph Phakosporra pachirrhizi were humidified in dedicated chamber overnight at 18° C. in the dark. The next day, a solution of spores at 7×10^3 sp/mL was prepared in a water based growth medium (H2O+0.2 mM MOPS at pH 7+0.01% Tween 20) and spores were distributed in a 96-MTPS (final volume of 200 μL per well) thanks to a dispenser robot. Each molecule was tested at 10 doses (from 30 to 0.002 ppm final concentration) and accordingly 1.2 μL of each dilution was transferred in dedicated well to end-up with a final concentration of 0.6% DMSO. Wild-type spores and molecules were incubated for 4 hours at 21° C., and 6 images par well were then acquired with Transmitted Light images (Image Xpress Micro microscope, Molecular Devices, Objective 10×, 6 images per well). Detection and quantification of the number of germinated spores per image was performed with a dedicated in-house developed algorithm (MetaXpress software, Molecular Devices).

[1] = Log P by HPLC on reversed phase columns, method [a] (EEC directive 79/831 Annex V.A8); type: physicochemical; conditions: reversed phase HPLC column
Summary of the method: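 Reversed-phase HPLC with LC-UV detection per EEC directive 79/831 Annex V.A8, acidic eluent of 0.1% formic acid in water and acetonitrile, linear gradient 10% to 95% acetonitrile. Log P derived from retention times, calibrated against straight-chain alkan-2-ones (C3–C16) by linear interpolation.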

Puccinia recondita = test: Example D: in vivo preventive test (brown rust on wheat); conditions: 264 h, 500 ppm of tested compound, preventive spray, evaluated 11 days after inoculation, read-out: efficacy
Summary of the method: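 Young wheat sprayed preventively with compound in DMSO/acetone/Tween 80 diluted in water, then inoculated with Puccinia recondita spores 24 hours later. Plants held 24 hours at 20 °C, 100% RH, then 10 days at 20 °C, 70-80% RH; efficacy scored 11 days post-inoculation, 0% matching untreated control, 100% no disease.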

Botrytis cinerea = test: Example C: in vivo preventive test (grey mould) on gherkin or cabbage; conditions: 500 ppm of active ingredient, preventive spray, evaluated 4 to 5 days after inoculation, read-out: efficacy
Procedure: Solvent: 5% by volume of dimethyl sulfoxide • 10% by volume of acetone Emulsifier: 1 μl of Tween® 80 per mg of active ingredient The tested compounds were made soluble and homogenized in a mixture of dimethyl sulfoxide/acetone/Tween® 80 and then diluted in water to the desired concentration. The young plants of gherkin or cabbage were treated by spraying the tested compound prepared as described above. Control plants were treated only with an aqueous solution of acetone/dimethyl sulfoxide/Tween® 80. After 24 hours, the plants were contaminated by spraying the leaves with an aqueous suspension of Botrytis cinerea spores. The contaminated gherkin plants were incubated for 4 to 5 days at 17° C. and at 90% relative humidity. The contaminated cabbage plants were incubated for 4 to 5 days at 20° C. and at 100% relative humidity. The test was evaluated 4 to 5 days after the inoculation. 0% means an efficacy which corresponds to that of the control plants while an efficacy of 100% means that no disease was observed.

Alternaria brassicae = test: Example E: in vivo preventive test (cabbage); conditions: 144 h, 500 ppm of tested compound, preventive spray, evaluated 6 days after inoculation, read-out: efficacy
Procedure: Solvent: 5% by volume of dimethyl sulfoxide • 10% by volume of acetone Emulsifier: 1 μL of Tween® 80 per mg of active ingredient The tested compounds were made soluble and homogenized in a mixture of Dimethyl sulfoxide/Acetone/Tween® 80 and then diluted in water to the desired concentration. The young plants of cabbage were treated by spraying the tested compound prepared as described above. Control plants were treated only with an aqueous solution of Acetone/Dimethyl sulfoxide/Tween® 80. After 24 hours, the plants were contaminated by spraying the leaves with an aqueous suspension of Alternaria brassicae spores. The contaminated cabbage plants were incubated for 6 days at 20° C. and at 100% relative humidity. The test was evaluated 6 days after the inoculation. 0% means an efficacy which corresponds to that of the control plants while an efficacy of 100% means that no disease was observed.

[2] = tested on: Colletotrichum lindemuthianum; test: Example B: in vitro cell test, spore germination and mycelium growth in liquid culture; type: cell-based; conditions: 144 h, 20 ppm of tested compound, 6 days incubation, read-out: efficacy (inhibition of fungal growth)
Summary of the method: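 Compounds in DMSO (final ≤1%) added to glucose/peptone/yeast extract liquid medium containing C. lindemuthianum spores. After 6 days incubation, mycelium growth measured spectrometrically; inhibition calculated from absorbance versus compound-free control wells.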

Phakopsora pachyrhizi = test: Example F: in vivo preventive test (soybeans), DMSO/acetone/Tween 80; conditions: 288 h, 500 ppm of tested compound, preventive spray, soybean, evaluated 12 days after inoculation, read-out: efficacy
Summary of the method: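 Compounds in DMSO/acetone/Tween 80, diluted in water, were sprayed preventively onto young plants, which were spore-inoculated 24 h later. Plants were held 24 h at 24 °C and 100% RH, then 11 days at 24 °C and 70–80% RH. Scored 12 days post-inoculation: 0% = control-level disease, 100% = no disease.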

[3] = Method A: LC-UV, acidic range, 0.1% formic acid in water and acetonitrile, read-out: Log P
[4] = log P determined according to method [a] (HPLC on reversed phase columns), read-out: logP
[5] = method [a], HPLC on reversed phase columns, read-out: logP

| chromatographic logP [1, 3] | chromatographic logP [1, 4] | SMILES | pest or weed control at 500 µg/mL (Puccinia recondita) [%] | pest or weed control at 500 ppm (Botrytis cinerea) [%] | inhibition of growth at 20 µg/mL [2] [%] | pest or weed control at 500 µg/mL (Phakopsora pachyrhizi) [%] | inhibition at 20 ppm (Phakosporra pachirrhizi) [%] | also measured |
| --- | --- | --- | --- | --- | --- | --- | --- | --- |
| – | 2.75 | Fc1ccc(C2(Nc3ncc(-c4nnc(C(F)F)o4)cn3)CC2)cc1 [I.146, 5-[5-(difluoromethyl)-1,3,4-oxadiazol-2-yl]-N-[1-(4-fluorophenyl)cyclopropyl]pyrimidin-2-amine] | 90 to 100 | 90 to 100 | 70 to 79 | 90 to 100 | – | pest or weed control at 500 µg/mL (Alternaria brassicae): 90 to 100% |
| 3.18 | – | FC(F)c1nnc(-c2cnc(NC3(c4ccccc4)CCC3)nc2)o1 [I.134, 5-[5-(difluoromethyl)-1,3,4-oxadiazol-2-yl]-N-(1-phenylcyclobutyl)pyrimidin-2-amine] | 70 to 79 | – | 90 to 100 | 90 to 100 | ≥ 70 | – |
| – | 3.84 | FC(F)(F)c1nnc(-c2cnc(NC3(c4ccccc4)CCC3)nc2)o1 [I.160, N-(1-phenylcyclobutyl)-5-[5-(trifluoromethyl)-1,3,4-oxadiazol-2-yl]pyrimidin-2-amine] | – | – | 80 to 89 | 90 to 100 | ≥ 70 | – |
| – | 2.85 | Fc1ccccc1C1(Nc2ncc(-c3nnc(C(F)F)o3)cn2)CC1 [I.144, 5-[5-(difluoromethyl)-1,3,4-oxadiazol-2-yl]-N-[1-(2-fluorophenyl)cyclopropyl]pyrimidin-2-amine] | 90 to 100 | – | 90 to 100 | 90 to 100 | ≥ 70 | – |

The next lines start with the compound.

| SMILES | chromatographic logP [1, 3] | chromatographic logP [1, 4] | pest or weed control at 500 µg/mL (Puccinia recondita) [%] | pest or weed control at 500 ppm (Botrytis cinerea) [%] | inhibition of growth at 20 µg/mL [2] [%] | pest or weed control at 500 µg/mL (Phakopsora pachyrhizi) [%] | inhibition at 20 ppm (Phakosporra pachirrhizi) [%] | also measured |
| --- | --- | --- | --- | --- | --- | --- | --- | --- |
| CCc1noc(-c2ccc(-c3nnc(C(F)(F)F)o3)cc2)n1 [I.018, 3-ethyl-5-{4-[5-(trifluoromethyl)-1,3,4-oxadiazol-2-yl]phenyl}-1,2,4-oxadiazole] | 3.59 | – | – | – | – | – | – | inhibition at 30 ppm (Phakosporra pachirrhizi): ≥ 70% |
| O=C(Nc1ccc(F)cc1F)c1ccc(-c2nnc(C(F)F)o2)cc1 [I.027, 4-[5-(difluoromethyl)-1,3,4-oxadiazol-2-yl]-N-(2,4-difluorophenyl)benzamide] | – | – | – | – | – | – | – | inhibition at 4 ppm (Phakosporra pachirrhizi; 4 ppm of active ingredient): ≥ 70% |
| Fc1ccc(C(Nc2ncc(-c3nnc(C(F)F)o3)cn2)C(F)(F)F)cc1 (racemic) [I.181, 5-[5-(difluoromethyl)-1,3,4-oxadiazol-2-yl]-N-[(1RS)-2,2,2-trifluoro-1-(4-fluorophenyl)ethyl]pyrimidin-2-amine] | – | – | 90 to 100 | 70 to 79 | 80 to 89 | 90 to 100 | – | chromatographic logP [1, 5]: 3.22 |
| FC(F)c1nnc(-c2cnc(N[C@@H]3C[C@H]3c3ccccc3)nc2)o1 (racemic) [I.196, 5-[5-(difluoromethyl)-1,3,4-oxadiazol-2-yl]-N-[rac-(1R,2S)-2-phenylcyclopropyl]pyrimidin-2-amine] | – | – | – | 90 to 100 | 70 to 79 | 90 to 100 | – | pest or weed control at 500 µg/mL (Alternaria brassicae): 90 to 100%; chromatographic logP [1, 5]: 2.94 |
| O=C(O)c1ccc(-c2nnc(C(F)(F)F)o2)cc1 [I.004, 4-[5-(trifluoromethyl)-1,3,4-oxadiazol-2-yl]benzoic acid] | – | – | – | – | – | – | – | inhibition at 30 ppm (Phakosporra pachirrhizi): ≥ 70% |
| O=C(O)c1ccc(-c2nnc(C(F)(F)F)s2)cc1 [I.008, 4-[5-(trifluoromethyl)-1,3,4-thiadiazol-2-yl]benzoic acid] | 1.41 | – | – | – | – | – | ≥ 70 | – |
